# Patent publication US10080739B2, “Aryl imidazoles and their use as anti-cancer agents” (Aptose Biosciences Inc., priority 2003, dated 2018)
# Assays:
# PDK1 = target: T1, PDK1 (Homo sapiens, UniProt O15530); assay: kinase profiler, PDK1; assay type: biochemical; settings: 10 μM compound, 100 μM ATP, mean of % control
# T1 construct: purchased Upstate Biotechnologies (kinase profiler service)
# Protocol: (§1) Compound 45 was tested for its ability to function as a kinase inhibitor using the kinase profiler service from Upstate Biotechnologies. The general protocol employed is as follows: recombinant kinases were incubated with specific substrates, 10 mM MgAcetate, and [γ-^33P-ATP]. The reaction was initiated by the addition of MgATP mix. After incubation at room temperature for 40 minutes, the reaction was stopped by the addition of 5 μl of a 3% phosphoric acid solution. 10 μl of the reaction was then spotted on to a P30 filtermat and washed 3 times for 5 min. in 75 mM phosphoric acid and once in methanol prior to drying and scintillation counting. Each reaction was performed in duplicate with 100 μM ATP −/+10 μM compound 45. Results are presented in Table IV and are expressed as the mean of % control (no compound). PI 3-kinase-γ (PI3K-γ) activity was determined with the PIProfiler™ assay, which measures the binding of the GRP1 pleckstrin homology (PH) domain to PIP3, the product of PI3K acting on its physiological substrate PIP2.
# IKKα = target: T2, IKKα (Homo sapiens, UniProt O15111); assay: kinase profiler, IKKα; assay type: biochemical; settings: 10 μM compound, 100 μM ATP, mean of % control
# T2 construct: purchased Upstate Biotechnologies (kinase profiler service)
# Protocol: as §1
# MKK4 = target: T3, MKK4 (Mus musculus, UniProt P47809); assay: kinase profiler, MKK4; assay type: biochemical, human; settings: 10 μM compound, 100 μM ATP, mean of % control
# T3 construct: purchased Upstate Biotechnologies (kinase profiler service)
# Protocol: as §1
# SAPK2b = target: T4, SAPK2b (Homo sapiens, UniProt Q15759); assay: kinase profiler, SAPK2b; assay type: biochemical; settings: 10 μM compound, 100 μM ATP, mean of % control
# T4 construct: purchased Upstate Biotechnologies (kinase profiler service)
# T4 sequence (Q15759 whole entry): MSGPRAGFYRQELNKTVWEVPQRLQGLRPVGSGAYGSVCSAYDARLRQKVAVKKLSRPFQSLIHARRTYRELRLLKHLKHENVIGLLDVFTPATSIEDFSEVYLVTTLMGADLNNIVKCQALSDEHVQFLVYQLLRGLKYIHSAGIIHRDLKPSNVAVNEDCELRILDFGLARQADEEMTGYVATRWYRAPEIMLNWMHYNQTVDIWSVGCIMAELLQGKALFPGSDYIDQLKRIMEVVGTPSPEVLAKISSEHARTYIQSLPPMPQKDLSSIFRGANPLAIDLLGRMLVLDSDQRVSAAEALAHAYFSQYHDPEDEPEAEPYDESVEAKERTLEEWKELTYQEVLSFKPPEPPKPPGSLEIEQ
# Protocol: as §1
# p70S6K = assay: kinase profiler, p70S6K; assay type: biochemical, human; settings: 10 μM compound, 100 μM ATP, mean of % control
# Protocol: as §1
# PKCμ = target: T5, PKCμ (Homo sapiens, UniProt Q15139); assay: kinase profiler, PKCμ; assay type: biochemical; settings: 10 μM compound, 100 μM ATP, mean of % control
# T5 construct: purchased Upstate Biotechnologies (kinase profiler service)
# T5 sequence (Q15139 whole entry): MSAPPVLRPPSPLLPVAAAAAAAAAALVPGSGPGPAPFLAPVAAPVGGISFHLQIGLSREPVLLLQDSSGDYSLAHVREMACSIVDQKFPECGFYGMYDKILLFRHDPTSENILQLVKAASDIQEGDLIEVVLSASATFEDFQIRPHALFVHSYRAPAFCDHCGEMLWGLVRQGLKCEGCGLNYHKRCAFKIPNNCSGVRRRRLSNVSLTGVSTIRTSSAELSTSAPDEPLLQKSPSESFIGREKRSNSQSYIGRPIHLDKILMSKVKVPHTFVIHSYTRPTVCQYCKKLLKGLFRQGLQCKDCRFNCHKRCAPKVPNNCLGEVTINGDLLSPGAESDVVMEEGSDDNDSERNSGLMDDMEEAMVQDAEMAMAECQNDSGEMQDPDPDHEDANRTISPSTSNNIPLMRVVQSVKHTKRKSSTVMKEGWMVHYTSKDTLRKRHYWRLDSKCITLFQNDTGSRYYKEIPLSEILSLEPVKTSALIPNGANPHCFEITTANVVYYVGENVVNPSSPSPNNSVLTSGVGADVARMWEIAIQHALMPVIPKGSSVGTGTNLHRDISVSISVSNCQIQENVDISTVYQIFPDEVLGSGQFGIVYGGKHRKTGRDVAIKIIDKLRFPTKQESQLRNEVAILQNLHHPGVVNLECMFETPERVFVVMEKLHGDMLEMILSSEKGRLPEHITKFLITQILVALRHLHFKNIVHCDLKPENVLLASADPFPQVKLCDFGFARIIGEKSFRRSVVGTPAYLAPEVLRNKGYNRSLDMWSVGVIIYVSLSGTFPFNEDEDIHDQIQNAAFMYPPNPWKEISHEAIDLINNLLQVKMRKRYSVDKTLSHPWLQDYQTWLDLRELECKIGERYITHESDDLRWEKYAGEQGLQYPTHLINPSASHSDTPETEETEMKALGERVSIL
# Protocol: as §1
# BRK = target: T6, BRK (Homo sapiens, UniProt Q13882); assay: kinase profiler, BRK; assay type: biochemical; settings: 10 μM compound, 100 μM ATP, mean of % control
# T6 construct: purchased Upstate Biotechnologies (kinase profiler service)
# Protocol: as §1
# CDK1/cyclinB = target: T7, CDK1/cyclinB (Homo sapiens, UniProt P06493); assay: kinase profiler, CDK1/cyclinB; assay type: biochemical; settings: 10 μM compound, 100 μM ATP, mean of % control
# T7 construct: purchased Upstate Biotechnologies (kinase profiler service)
# T7 sequence (P06493 whole entry): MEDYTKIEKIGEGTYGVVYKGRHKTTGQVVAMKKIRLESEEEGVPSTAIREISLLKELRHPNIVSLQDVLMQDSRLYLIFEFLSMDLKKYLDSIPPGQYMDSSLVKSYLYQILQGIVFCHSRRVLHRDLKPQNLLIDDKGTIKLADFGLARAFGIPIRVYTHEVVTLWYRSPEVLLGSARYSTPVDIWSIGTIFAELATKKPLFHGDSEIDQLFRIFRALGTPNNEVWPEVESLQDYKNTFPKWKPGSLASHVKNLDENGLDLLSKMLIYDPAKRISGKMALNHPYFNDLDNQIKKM
# T7 sequence (P14635 whole entry partner): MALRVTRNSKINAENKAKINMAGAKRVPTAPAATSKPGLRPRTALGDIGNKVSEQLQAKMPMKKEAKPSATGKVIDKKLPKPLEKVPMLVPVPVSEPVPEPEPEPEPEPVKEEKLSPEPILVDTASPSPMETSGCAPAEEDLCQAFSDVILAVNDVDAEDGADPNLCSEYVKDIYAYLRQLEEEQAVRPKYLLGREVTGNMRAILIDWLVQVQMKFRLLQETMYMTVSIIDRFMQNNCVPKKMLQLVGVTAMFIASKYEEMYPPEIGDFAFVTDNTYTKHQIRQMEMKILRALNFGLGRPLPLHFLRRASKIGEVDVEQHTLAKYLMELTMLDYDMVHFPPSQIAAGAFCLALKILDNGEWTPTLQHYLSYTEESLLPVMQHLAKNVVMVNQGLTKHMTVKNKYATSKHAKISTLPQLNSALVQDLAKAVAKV
# Protocol: as §1
# JNK1α1 = target: T8, JNK1α1 (Homo sapiens, UniProt P45983); assay: kinase profiler, JNK1α1; assay type: biochemical; settings: 10 μM compound, 100 μM ATP, mean of % control
# T8 construct: purchased Upstate Biotechnologies (kinase profiler service)
# Protocol: as §1
# NEK2 = target: T9, NEK2 (Homo sapiens, UniProt P51955); assay: kinase profiler, NEK2; assay type: biochemical; settings: 10 μM compound, 100 μM ATP, mean of % control
# T9 construct: purchased Upstate Biotechnologies (kinase profiler service)
# T9 sequence (P51955 whole entry): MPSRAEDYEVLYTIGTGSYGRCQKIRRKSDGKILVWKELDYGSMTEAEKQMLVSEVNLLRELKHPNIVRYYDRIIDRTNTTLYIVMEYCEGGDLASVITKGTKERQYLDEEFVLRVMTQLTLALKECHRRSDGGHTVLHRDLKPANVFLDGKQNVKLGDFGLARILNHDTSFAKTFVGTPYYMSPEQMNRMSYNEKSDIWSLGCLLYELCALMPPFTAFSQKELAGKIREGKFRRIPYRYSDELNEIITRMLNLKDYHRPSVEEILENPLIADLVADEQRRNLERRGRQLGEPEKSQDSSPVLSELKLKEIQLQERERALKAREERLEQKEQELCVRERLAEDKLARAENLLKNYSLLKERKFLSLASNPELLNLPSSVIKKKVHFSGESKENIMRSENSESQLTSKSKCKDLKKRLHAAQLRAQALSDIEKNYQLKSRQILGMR
# Protocol: as §1
# PDGFRα = target: T10, PDGFRα (Homo sapiens, UniProt P16234); assay: kinase profiler, PDGFRα; assay type: biochemical; settings: 10 μM compound, 100 μM ATP, mean of % control
# T10 construct: purchased Upstate Biotechnologies (kinase profiler service)
# Protocol: as §1
# JNK3 = target: T11, JNK3 (Homo sapiens, UniProt P53779); assay: kinase profiler, JNK3; assay type: biochemical; settings: 10 μM compound, 100 μM ATP, mean of % control
# T11 construct: purchased Upstate Biotechnologies (kinase profiler service)
# T11 sequence (P53779 whole entry): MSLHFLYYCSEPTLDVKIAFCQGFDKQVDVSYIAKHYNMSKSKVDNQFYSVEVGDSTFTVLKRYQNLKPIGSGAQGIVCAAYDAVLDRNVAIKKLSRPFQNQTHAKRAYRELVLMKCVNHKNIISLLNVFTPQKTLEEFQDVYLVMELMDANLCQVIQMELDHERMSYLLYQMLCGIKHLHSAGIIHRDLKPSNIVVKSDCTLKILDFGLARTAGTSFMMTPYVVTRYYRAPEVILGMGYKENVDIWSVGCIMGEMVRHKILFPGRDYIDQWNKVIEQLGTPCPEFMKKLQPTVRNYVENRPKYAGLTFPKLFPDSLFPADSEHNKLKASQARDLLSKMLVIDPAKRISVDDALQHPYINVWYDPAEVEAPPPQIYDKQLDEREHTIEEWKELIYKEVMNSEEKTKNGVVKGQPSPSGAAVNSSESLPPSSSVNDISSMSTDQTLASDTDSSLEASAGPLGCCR
# Protocol: as §1
# renal cancer cell lines = assay: NCI/DTP screen, renal cancer cell lines; assay type: cell-based; settings: Homo sapiens; renal cancer cell lines (FIG. 10B)
# Protocol: The twenty-three compounds of Formula I shown below were evaluated for their antiproliferative effects in a panel of 60 human cancer cell lines as part of the in vitro anticancer screening services provided by the DTP (Developmental Therapeutics Program) of the US National Cancer Institute (NCI) U.S. National Cancer Institute (NCI) of the National Institutes of Health (NIH) in […], Md.
# The NCI conducts a standard 48/72 hour 60 cell line assay and an in vitro time course assay as described in Alley et al. (Cancer Res (1988) 48:589). In the standard 60 cell line assay, a minimum of 5 concentrations of the test compound are tested at 10-fold dilutions against 60 cell lines and cell growth is assayed at 48 and 72 hours using a sulphorhodamine B assay. For the time course analysis, tumour cells are treated with the test compound at various time points, then washed and grown in medium free of the test compound until the end of the experiment at 144 hrs. This assay employs 20% FBS to better approximate the minimum c×t (concentrations and times) test compound exposure conditions that are required to achieve activity in vivo. Cell growth is quantified by an MTT assay (similar to the XTT assay described above) and the concentration of the test compound required for growth inhibition is determined. […]
# SAPK3 = target: T12, SAPK3 (Homo sapiens, UniProt P53778); assay: kinase profiler, SAPK3; assay type: biochemical; settings: 10 μM compound, 100 μM ATP, mean of % control
# T12 construct: purchased Upstate Biotechnologies (kinase profiler service)
# Protocol: as §1
# IKKβ = target: T13, IKKβ (Homo sapiens, UniProt O14920); assay: kinase profiler, IKKβ; assay type: biochemical; settings: 10 μM compound, 100 μM ATP, mean of % control
# T13 construct: purchased Upstate Biotechnologies (kinase profiler service)
# Protocol: as §1
# PAR-1Bα = target: T14, PAR-1Bα (Homo sapiens, UniProt Q7KZI7); assay: kinase profiler, PAR-1Bα; assay type: biochemical; settings: 10 μM compound, 100 μM ATP, mean of % control
# T14 construct: purchased Upstate Biotechnologies (kinase profiler service)
# T14 sequence (Q7KZI7 1-725 isoform Q7KZI7-4): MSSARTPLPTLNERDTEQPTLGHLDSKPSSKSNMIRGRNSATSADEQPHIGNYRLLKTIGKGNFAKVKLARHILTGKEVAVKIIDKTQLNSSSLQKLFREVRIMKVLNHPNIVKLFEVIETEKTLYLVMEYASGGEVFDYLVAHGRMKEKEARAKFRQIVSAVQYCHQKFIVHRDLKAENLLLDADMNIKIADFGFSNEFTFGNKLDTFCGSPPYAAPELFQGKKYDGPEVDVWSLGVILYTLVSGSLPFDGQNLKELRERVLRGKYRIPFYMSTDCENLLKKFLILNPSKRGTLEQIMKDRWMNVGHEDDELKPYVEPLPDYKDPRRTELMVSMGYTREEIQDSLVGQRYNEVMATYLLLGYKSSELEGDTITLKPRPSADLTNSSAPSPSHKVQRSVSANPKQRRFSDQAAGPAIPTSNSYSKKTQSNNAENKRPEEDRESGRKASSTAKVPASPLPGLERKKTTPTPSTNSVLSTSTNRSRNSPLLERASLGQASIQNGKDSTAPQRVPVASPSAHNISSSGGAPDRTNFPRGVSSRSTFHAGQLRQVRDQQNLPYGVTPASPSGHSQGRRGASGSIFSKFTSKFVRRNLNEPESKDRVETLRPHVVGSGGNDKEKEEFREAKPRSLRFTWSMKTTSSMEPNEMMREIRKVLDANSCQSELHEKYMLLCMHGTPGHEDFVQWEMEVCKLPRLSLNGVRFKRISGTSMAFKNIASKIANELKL
# Protocol: as §1
# Fyn = target: T15, Fyn (Homo sapiens, UniProt P06241); assay: kinase profiler, Fyn; assay type: biochemical; settings: 10 μM compound, 100 μM ATP, mean of % control
# T15 construct: purchased Upstate Biotechnologies (kinase profiler service)
# Protocol: as §1
# Yes = target: T16, Yes (Homo sapiens, UniProt P07947); assay: kinase profiler, Yes; assay type: biochemical; settings: 10 μM compound, 100 μM ATP, mean of % control
# T16 construct: purchased Upstate Biotechnologies (kinase profiler service)
# Protocol: as §1
# Fes = target: T17, Fes (Homo sapiens, UniProt P07332); assay: kinase profiler, Fes; assay type: biochemical; settings: 10 μM compound, 100 μM ATP, mean of % control
# T17 construct: purchased Upstate Biotechnologies (kinase profiler service)
# Protocol: as §1
# Ret = target: T18, Ret (Homo sapiens, UniProt P07949); assay: kinase profiler, Ret; assay type: biochemical; settings: 10 μM compound, 100 μM ATP, mean of % control
# T18 construct: purchased Upstate Biotechnologies (kinase profiler service)
# Protocol: as §1
# MAPK1 = target: T19, MAPK1 (Homo sapiens, UniProt P27361); assay: kinase profiler, MAPK1; assay type: biochemical; settings: 10 μM compound, 100 μM ATP, mean of % control
# T19 construct: purchased Upstate Biotechnologies (kinase profiler service)
# Protocol: as §1
# Lyn = target: T20, Lyn (Homo sapiens, UniProt P07948); assay: kinase profiler, Lyn; assay type: biochemical; settings: 10 μM compound, 100 μM ATP, mean of % control
# T20 construct: purchased Upstate Biotechnologies (kinase profiler service)
# Protocol: as §1
# MEK1 = target: T21, MEK1 (Homo sapiens, UniProt Q02750); assay: kinase profiler, MEK1; assay type: biochemical; settings: 10 μM compound, 100 μM ATP, mean of % control
# T21 construct: purchased Upstate Biotechnologies (kinase profiler service)
# T21 sequence (Q02750 whole entry): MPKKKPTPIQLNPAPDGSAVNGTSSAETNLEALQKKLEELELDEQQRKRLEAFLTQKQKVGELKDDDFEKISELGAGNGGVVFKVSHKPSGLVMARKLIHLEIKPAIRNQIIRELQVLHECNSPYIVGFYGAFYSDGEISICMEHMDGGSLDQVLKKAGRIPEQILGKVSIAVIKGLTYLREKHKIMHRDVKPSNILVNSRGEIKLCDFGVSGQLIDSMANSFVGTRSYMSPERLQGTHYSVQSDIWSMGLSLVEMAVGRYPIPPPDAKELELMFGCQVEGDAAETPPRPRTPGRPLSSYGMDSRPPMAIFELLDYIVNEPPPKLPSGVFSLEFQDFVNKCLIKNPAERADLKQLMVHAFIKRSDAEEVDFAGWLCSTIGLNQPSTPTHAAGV
# Protocol: as §1
# Met = target: T22, Met (Homo sapiens, UniProt P08581); assay: kinase profiler, Met; assay type: biochemical; settings: 10 μM compound, 100 μM ATP, mean of % control
# T22 construct: purchased Upstate Biotechnologies (kinase profiler service)
# Protocol: as §1
# MAPKAP-K2 = target: T23, MAPKAP-K2 (Homo sapiens, UniProt P49137); assay: kinase profiler, MAPKAP-K2; assay type: biochemical; settings: 10 μM compound, 100 μM ATP, mean of % control
# T23 construct: purchased Upstate Biotechnologies (kinase profiler service)
# T23 sequence (P49137 whole entry): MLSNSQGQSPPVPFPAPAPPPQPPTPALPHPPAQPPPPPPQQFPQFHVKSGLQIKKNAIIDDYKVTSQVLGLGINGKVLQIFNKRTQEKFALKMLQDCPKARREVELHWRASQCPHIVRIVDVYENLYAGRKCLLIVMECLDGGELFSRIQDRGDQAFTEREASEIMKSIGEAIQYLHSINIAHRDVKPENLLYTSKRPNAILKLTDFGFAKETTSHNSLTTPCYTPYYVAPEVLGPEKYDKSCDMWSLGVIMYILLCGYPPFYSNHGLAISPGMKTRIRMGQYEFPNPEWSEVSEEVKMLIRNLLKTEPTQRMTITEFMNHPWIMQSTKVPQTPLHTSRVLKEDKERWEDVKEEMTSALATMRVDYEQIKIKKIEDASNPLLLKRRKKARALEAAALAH
# Protocol: as §1
# CHK1 = target: T24, CHK1 (Homo sapiens, UniProt O14757); assay: kinase profiler, CHK1; assay type: biochemical; settings: 10 μM compound, 100 μM ATP, mean of % control
# T24 construct: purchased Upstate Biotechnologies (kinase profiler service)
# T24 sequence (O14757 whole entry): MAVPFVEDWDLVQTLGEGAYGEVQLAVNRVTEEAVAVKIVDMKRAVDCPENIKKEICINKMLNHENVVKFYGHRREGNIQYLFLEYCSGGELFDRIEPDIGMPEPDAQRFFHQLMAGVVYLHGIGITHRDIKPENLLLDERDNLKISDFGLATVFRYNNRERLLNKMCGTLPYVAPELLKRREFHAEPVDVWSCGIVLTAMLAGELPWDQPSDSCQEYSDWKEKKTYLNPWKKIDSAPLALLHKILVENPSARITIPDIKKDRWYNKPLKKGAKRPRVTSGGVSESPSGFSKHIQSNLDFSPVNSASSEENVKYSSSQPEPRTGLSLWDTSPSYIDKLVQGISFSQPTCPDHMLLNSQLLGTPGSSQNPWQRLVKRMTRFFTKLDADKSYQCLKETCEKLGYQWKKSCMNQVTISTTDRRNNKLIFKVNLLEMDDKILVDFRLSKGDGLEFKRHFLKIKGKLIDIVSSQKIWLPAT
# Protocol: as §1
# HT-29 colon cancer cells = assay: growth suppression of HT-29 colon cancer cells; assay type: cell-based; settings: Homo sapiens
# PKBα = target: T25, PKBα (Homo sapiens, UniProt P31749); assay: kinase profiler, PKBα; assay type: biochemical; settings: 10 μM compound, 100 μM ATP, mean of % control
# T25 construct: purchased Upstate Biotechnologies (kinase profiler service)
# Protocol: as §1
# AMPK = assay: kinase profiler, AMPK; assay type: biochemical, human; settings: 10 μM compound, 100 μM ATP, mean of % control
# Protocol: as §1
# PKA = target: T26, PKA (Homo sapiens, UniProt P17612); assay: kinase profiler, PKA; assay type: biochemical; settings: 10 μM compound, 100 μM ATP, mean of % control
# T26 construct: purchased Upstate Biotechnologies (kinase profiler service)
# Protocol: as §1
compound,measurement,setting,value
Brc1ccc2[nH]cc(-c3nc4c5ccccc5c5ccccc5c4[nH]3)c2c1 [Compound 45],activity at 10 µM,PDK1,106%
same,activity at 10 µM,IKKα,150%
same,activity at 10 µM,MKK4,96%
same,activity at 10 µM,SAPK2b,80%
same,% activity,p70S6K,64%
same,activity at 10 µM,PKCμ,90%
same,activity at 10 µM,BRK,112%
same,activity at 10 µM,CDK1/cyclinB,156%
same,activity at 10 µM,JNK1α1,85%
same,activity at 10 µM,NEK2,90%
same,activity at 10 µM,PDGFRα,117%
same,activity at 10 µM,JNK3,121%
same,GI50,renal cancer cell lines,1300 nM
same,activity at 10 µM,SAPK3,54%
same,activity at 10 µM,IKKβ,111%
same,activity at 10 µM,PAR-1Bα,88%
same,activity at 10 µM,Fyn,103%
same,activity at 10 µM,Yes,91%
same,activity at 10 µM,Fes,99%
same,activity at 10 µM,Ret,82%
same,activity at 10 µM,MAPK1,85%
same,activity at 10 µM,Lyn,81%
same,activity at 10 µM,MEK1,88%
same,activity at 10 µM,Met,129%
same,activity at 10 µM,MAPKAP-K2,119%
same,activity at 10 µM,CHK1,111%
same,GI50,HT-29 colon cancer cells,2600 nM
same,activity at 10 µM,PKBα,95%
same,% activity,AMPK,100%
same,activity at 10 µM,PKA,83%
